In patent US8389509B2, “Substituted pyrazole compounds” (Bristol-Myers Squibb Company, priority 2009, dated 2013):
Counter-ions that a name gives are not always drawn.

Experiments:
S1P1 [1] = target: T1, S1P1 (Homo sapiens, UniProt P21453); assay: Method A: Receptor [35S] GTPγS Binding Assay, S1P1; format: biochemical; conditions: for EC50: Method A, S1P1/CHO cell membranes; for GTPγS S1P3/S1P1 (Method A): ratio of S1P3 EC50 to S1P1 EC50, Method A
T1 construct: expressed in transfected cells; host or cells: CHO cells
Procedure: (§1) Method A: Receptor [35S] GTPγS Binding Assays
(§2) Compounds were loaded in a 384 FALCON® v-bottom plate (0.5 μl/well in a 3-fold dilution). Membranes prepared from S1P1/CHO cells or EDG3-Gal5-bla HEK293T cells were added to the compound plate (40 μl/well, final protein 3 μg/well) with MULTIDROP®. [^35S]GTP (1250 Ci/mmol, Perkin Elmer) was diluted in assay buffer: 20 mM HEPES, pH7.5, 10 mM MgCl2, 150 mM NaCl, 1 mM EGTA, 1 mM DTT, 10 μM GDP, 0.1% fatty acid free BSA, and 10 μg/ml Saponin to 0.4 nM. 40 μl of the [^35S] GTP solution was added to the compound plate with a final concentration of 0.2 nM. The reaction was kept at room temperature for 45 min. At the end of incubation, all the mixtures in the compound plate were transferred to a 384 well FB filter plates via GPCR robot system. The filter plate was washed with water 4 times by using the modified manifold Embla plate washer and dried at 60° C. for 45 min. 30 μA of MicroScint 20 scintillation fluid was added to each well for counting at Packard TOPCOUNT®. EC50 is defined as the agonist concentration that corresponds to 50% of the Ymax (maximal response) obtained for each individual compound tested.
(§3) Compounds of the present invention and Comparative Compound A were tested in the Receptor [^35S] GTPγS Binding Assays (Method A) and Receptor [^35S] In some instances, the value is an average of multiple experiments where N is the number of experiments conducted that provided satisfactory dose response curves. When more than one batch of an example was tested, the value presented is from a batch which allowed a comparison of GTPγS S1P1 and GTPγS S1P3 in which the most number of experiments were performed. Preferably, the same batch was examined in Method A and Method B. Data was not averaged across different batches of an example compound.

S1P1 [2] = target: T1, S1P1; assay: Method B: Receptor [35S] GTPγS SPA Binding Assay, S1P1; format: biochemical; conditions: for EC50: Method B (SPA), S1P1 transfected CHO cell membranes; for GTPγS S1P3/S1P1 (Method B): ratio of S1P3 EC50 to S1P1 EC50, Method B
Procedure: (§4) Method B: Receptor [^35S] GTPγS SPA Binding Assays
(§5) Membranes prepared from S1P1 or S1P3 transfected CHO cells (2 μg protein) were incubated in 96-well white plates (CORNING® 3693) with test compounds diluted in DMSO, in 50 μl of reaction mixture containing 7.5 μA WGA-PVT beads (20 mg/ml), and 5 μM GDP, 20 mM HEPES pH 7.4, 100 mM NaCl, 1 mM EDTA, 5 mM MgCl2, 10 μg/ml saponin, 0.1% BSA, and 1 μM leupeptin. The assay was initiated with the addition of […] of 0.2 nM [^35S]-GTPγS (1250 Ci/mmol; NEN) in assay buffer. After 90 min incubation at room temperature, spin the plate at 1000 rpm for 5 min. The bound radionuclides were measured at TOPCOUNT®, expressed as % response relative to S1P (1 μM) activation. Data was analyzed using the four parameter logistic equation in Excel. The four parameters in the equation, Y=A+((B−A)/(1+((EC50/X)^D))), are described as following: A is the Y value (agonist activity) at the bottom plateau; B is the Y value at the top plateau; EC50 is the X value (agonist concentration) when the response is halfway between bottom and top; D is Hill coefficient. Curves were not generated for compounds having Ymax values were below 50%.
as §3

S1P1 [3] = target: T1, S1P1; assay: S1P1 Binding Assay (33P-S1P competition, CHO membranes); conditions: membranes of CHO cells expressing human S1P1, 33P-S1P ligand; read-out: S1P1 B IC50
Procedure: Membranes were prepared from CHO cells expressing human S1P1. Cells were dissociated in buffer containing 20 mM HEPES, pH 7.5, 50 mM NaCl, 2 mM EDTA and Protease Inhibitor cocktail (Roche), and disrupted on ice using the Polytron homogenizer. The homogenate was centrifuged at 20,000 rpm (48,000 g) and the supernatant was discarded. The membrane pellets were resuspended in buffer containing 50 mM HEPES, pH 7.5, 100 mM NaCl, 1 mM MgCl2, 2 mM EDTA and stored in aliquots at −80° C. after protein concentration determination.
Membranes (2 μg/well) and 0.03 nM final concentration of ^33P-S1P ligand (1 mCi/ml, American Radiolabeled Chemicals) were added to the compound plates. Binding was performed for 60 min at room temperature, terminated by collecting the membranes onto GF/B filter plates, and radioactivity was measured by TOPCOUNT®. The competition data of the test compounds over a range of concentrations was plotted as percentage inhibition of radioligand specific binding. The IC50 is defined as the concentration of competing ligand needed to reduce specific binding by 50%.
Compounds of the present invention and Comparative Compound A were tested in the S1P1 binding assay described hereinabove and the results rounded to two digits, shown in Table A were obtained. In some instances, the value is an average of multiple experiments where N is the number of experiments conducted that provided satisfactory dose response curves. When more than one batch of an example was tested, the value presented is from the batch which allowed a comparison of GTPγS S1P1 and GTPγS S1P3 in Method A (Data shown in Table B). Data was not averaged across different batches of an example compound.

S1P3 [4] = target: T2, S1P3 (Homo sapiens, UniProt Q99500); assay: Method B: Receptor [35S] GTPγS SPA Binding Assay, S1P3; format: biochemical; design: expressed in transfected cells; host or cells: CHO cells; conditions: S1P3 transfected CHO cell membranes
Procedure: as §4, §5, §3

S1P3 [5] = target: T2, S1P3; assay: Method A: Receptor [35S] GTPγS Binding Assay, S1P3; format: biochemical; design: expressed in transfected cells; conditions: EDG3-Gal5-bla HEK293T cell membranes
Procedure: as §1, §2, §3

circulating lymphocytes [6] = assay: Blood Lymphocyte Reduction Assay (BLR) in mice; format: in vivo, BALB/c mice; conditions: oral
Procedure: (§6) Blood Lymphocyte Reduction Assay (BLR) in Rodents
(§7) Lewis rats or BALB/c mice were dosed orally with test article (as a solution or suspension in the vehicle) or vehicle alone (polyethylene glycol 300, “PEG300”). Blood was drawn at 4 hr and 24 h by retro-orbital bleeding. Blood lymphocyte counts were determined on an ADVIA 120 Hematology Analyzer (Siemens Healthcare Diagnostics). The results were measured as a reduction in the percentage of circulating lymphocytes as compared to the vehicle treated group at the 4 hr and 24 hr measurement. The results represent the average results of all animals within each treatment group (n=3-4).
(§8) Compounds of the present invention were tested in the Blood Lymphocyte Reduction assay (BLR) described hereinabove and the results are shown in Table D for rats and Table E for mice.

circulating lymphocytes [7] = assay: Blood Lymphocyte Reduction Assay (BLR) in rats; format: in vivo, Lewis rats; conditions: oral
Procedure: as §6, §7, §8

Lewis rats = assay: Rat Adjuvant Induced Arthritis Assay (AA); format: in vivo; conditions: for Paw Swelling (mL) on Day 21, Mean: vehicle mean 1.58
Procedure: Rat Adjuvant Induced Arthritis Assay (AA)
Male Lewis rats (150-175 g; Harlan, n=8 treatment group) were immunized at the base of the tail with 100 μl of 10 mg/ml freshly ground Mycobacterium butyricum (Difco Laboratories) in incomplete Freund's adjuvant (sigma). Animals were dosed once daily with the test article (as a solution or suspension in the vehicle) or vehicle alone (polyethylene glycol 300, “PEG300”) starting from the day of immunization. The volumes of their hind paws were measured in a water displacement plethysmometer (Ugo Basile, Italy). The baseline paw measurements were taken before onset of the disease (between day 7 to day 10). The paw measurements were then taken three times a week until the end of the study on day 20 to 21. All procedures involving animals were reviewed and approved by the Institutional Animal Care Use Committee.
Compounds of the present invention were tested in the Rat Adjuvant Induced Arthritis assay described hereinabove and the results are shown in Table F and Table G.

T1 sequence (P21453 whole entry): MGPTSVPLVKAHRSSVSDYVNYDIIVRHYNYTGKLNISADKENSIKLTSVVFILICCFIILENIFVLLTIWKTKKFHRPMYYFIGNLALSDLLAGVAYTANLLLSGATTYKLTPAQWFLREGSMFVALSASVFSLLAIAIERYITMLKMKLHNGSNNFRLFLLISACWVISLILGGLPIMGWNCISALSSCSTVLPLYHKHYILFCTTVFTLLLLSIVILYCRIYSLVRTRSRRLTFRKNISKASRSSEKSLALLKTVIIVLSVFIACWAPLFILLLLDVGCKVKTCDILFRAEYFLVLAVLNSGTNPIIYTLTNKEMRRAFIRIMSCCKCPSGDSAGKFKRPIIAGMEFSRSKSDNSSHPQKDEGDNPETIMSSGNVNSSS
T2 sequence (Q99500 whole entry): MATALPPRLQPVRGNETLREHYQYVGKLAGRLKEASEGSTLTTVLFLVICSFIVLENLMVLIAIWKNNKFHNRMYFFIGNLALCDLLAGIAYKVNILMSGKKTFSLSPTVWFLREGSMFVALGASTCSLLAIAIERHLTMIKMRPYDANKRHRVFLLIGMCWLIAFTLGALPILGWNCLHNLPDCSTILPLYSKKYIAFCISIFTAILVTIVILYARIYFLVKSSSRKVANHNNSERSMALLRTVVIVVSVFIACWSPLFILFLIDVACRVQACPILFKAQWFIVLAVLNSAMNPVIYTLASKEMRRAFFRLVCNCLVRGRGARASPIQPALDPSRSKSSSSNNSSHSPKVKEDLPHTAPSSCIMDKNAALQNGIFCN

O=C(O)C1CN(Cc2ccc(-c3noc(-c4cnn(-c5ccccc5)c4-c4cccnc4)n3)cc2)C1 [Example 15, 1-(4-(5-(1-Phenyl-5-(pyridin-3-yl)-1H-pyrazol-4-yl)-1,2,4-oxadiazol-3-yl)benzyl)azetidine-3-carboxylic acid, 2,2,2-trifluoroacetic acid salt]
EC50 (S1P1 [1]): 52 nM | GTPγS S1P3/S1P1 (Method A) (S1P1 [1]): 69 | EC50 (S1P1 [2]): 2.2 nM | GTPγS S1P3/S1P1 (Method B) (S1P1 [2]): 1,900 | IC50 (S1P1 [3]): 5.4 nM | EC50 (S1P3 [4]): 4100 nM | EC50 (S1P3 [5]): 3600 nM

CCCc1c(-c2nc(-c3ccc(CN4CC(C(=O)O)C4)cc3)no2)cnn1-c1ccccn1 [Example 6, 1-(4-(5-(5-propyl-1-(pyridin-2-yl)-1H-pyrazol-4-yl)-1,2,4-oxadiazol-3-yl)benzyl)azetidine-3-carboxylic acid]
EC50 (S1P1 [1]): 4.2 nM | GTPγS S1P3/S1P1 (Method A) (S1P1 [1]): 690 | IC50 (S1P1 [3]): 0.12 nM | EC50 (S1P3 [4]): 1300 nM | EC50 (S1P3 [5]): 2900 nM

Cc1c(-c2nc(-c3ccc(CN4CC(C(=O)O)C4)cc3)no2)cnn1-c1ccccc1 [Example 5, 1-(4-(5-(5-methyl-1-phenyl-1H-pyrazol-4-yl)-1,2,4-oxadiazol-3-yl)benzyl)azetidine-3-carboxylic acid]
EC50 (S1P1 [1]): 260 nM | GTPγS S1P3/S1P1 (Method A) (S1P1 [1]): 50 | EC50 (S1P1 [2]): 17 nM | IC50 (S1P1 [3]): 30 nM | EC50 (S1P3 [5]): 13000 nM

O=C(O)C1CN(Cc2ccc(-c3noc(-c4cnn(-c5ccccc5)c4C(F)(F)F)n3)cc2)C1 [Example 2, 1-(4-(5-(1-Phenyl-5-(trifluoromethyl)-1H-pyrazol-4-yl)-1,2,4-oxadiazol-3-yl)benzyl)azetidine-3-carboxylic acid]
% reduction in lymphocytes at 4 hr. (circulating lymphocytes [6]; 0.04 mg/kg): 68% | % reduction in lymphocytes at 24 hr. (circulating lymphocytes [6]; 0.04 mg/kg): 5% | % reduction in lymphocytes at 4 hr. (circulating lymphocytes [6]; 0.2 mg/kg): 76% | % reduction in lymphocytes at 24 hr. (circulating lymphocytes [6]; 0.2 mg/kg): 64% | % reduction in lymphocytes at 4 hr. (circulating lymphocytes [6]; 1.0 mg/kg): 80% | % reduction in lymphocytes at 24 hr. (circulating lymphocytes [6]; 1.0 mg/kg): 82% | % reduction in lymphocytes at 4 hr. (circulating lymphocytes [6]; 3.0 mg/kg): 73% | % reduction in lymphocytes at 24 hr. (circulating lymphocytes [6]; 3.0 mg/kg): 89% | % reduction in lymphocytes at 4 hr. (circulating lymphocytes [7]; 0.04 mg/kg): 64% | % reduction in lymphocytes at 24 hr. (circulating lymphocytes [7]; 0.04 mg/kg): 8% | % reduction in lymphocytes at 4 hr. (circulating lymphocytes [7]; 0.2 mg/kg): 76% | % reduction in lymphocytes at 24 hr. (circulating lymphocytes [7]; 0.2 mg/kg): 55% | % reduction in lymphocytes at 4 hr. (circulating lymphocytes [7]; 1.0 mg/kg): 76% | % reduction in lymphocytes at 24 hr. (circulating lymphocytes [7]; 1.0 mg/kg): 79% | EC50 (S1P1 [1]): 1.9 nM | EC50 (S1P1 [2]): 0.17 nM | GTPγS S1P3/S1P1 (Method B) (S1P1 [2]): 12,000 | Paw Swelling (mL) on Day 21, Mean (Lewis rats; 0.2 mg/kg once daily): 02.12 mL | Paw Swelling (mL) on Day 21, Mean (Lewis rats; 1.0 mg/kg once daily): 0.91 mL | Paw Swelling (mL) on Day 21, Mean (Lewis rats; 3.0 mg/kg once daily): 0.19 mL | Paw Swelling (mL) on Day 21, Mean (Lewis rats; 10.0 mg/kg once daily): 0.10 mL | disease progression as measured by paw swelling (Lewis rats; Lewis rat, prophylactic oral dosing): inhibit disease progression | IC50 (S1P1 [3]): 0.3 nM | EC50 (S1P3 [4]): 2100 nM
